Paper PMC11062507

T1: Ara h1 (peanut allergen) (peanut, UniProt P43238 85-626)
T1 sequence: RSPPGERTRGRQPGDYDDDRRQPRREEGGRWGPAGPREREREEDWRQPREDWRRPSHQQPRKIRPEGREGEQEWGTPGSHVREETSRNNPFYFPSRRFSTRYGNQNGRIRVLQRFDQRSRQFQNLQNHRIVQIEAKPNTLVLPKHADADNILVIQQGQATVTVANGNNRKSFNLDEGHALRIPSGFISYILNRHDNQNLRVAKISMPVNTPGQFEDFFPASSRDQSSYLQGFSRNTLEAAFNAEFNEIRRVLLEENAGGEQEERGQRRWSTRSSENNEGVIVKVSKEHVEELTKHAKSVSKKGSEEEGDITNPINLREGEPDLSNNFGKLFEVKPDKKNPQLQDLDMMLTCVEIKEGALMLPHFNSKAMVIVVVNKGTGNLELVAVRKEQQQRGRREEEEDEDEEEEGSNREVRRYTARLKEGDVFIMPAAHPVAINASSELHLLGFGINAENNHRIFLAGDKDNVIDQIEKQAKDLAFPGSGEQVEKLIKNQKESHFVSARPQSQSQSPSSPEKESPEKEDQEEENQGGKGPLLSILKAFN


Tests used:
[1] = system: CArah1-1 (DNA, aptamer, circular (5' and 3' ends ligated)) ATCCGATCGAGAGGATCCGGAAACATGCGAATTAATGAGGCCCCAAGATAGCTAAGAGAT; experiment: MMC-GO-based binding assay, SYBR Gold fluorescence; conditions: 1x binding buffer (composition not stated); specificity test, concentration not given
[2] = target: T1, Ara h1 (peanut allergen); experiment: MMC-GO-based fluorescence binding assay; Kd only in figure; 1x binding buffer (composition not in material); aptamer heated 95 C 5 min, ice 15 min, incubated 60 min with target, then MMC-GO 20 min; MST at 25 C; conditions: protein: native; tags: RED-NHS dye label in MST; label: SYBR Gold staining; circular ssDNA
[3] = target: T1, Ara h1 (peanut allergen); experiment: MST; labeled Ara h1 fixed, aptamer titrated, 25 C; 1x binding buffer (composition not in material); aptamer heated 95 C 5 min, ice 15 min, incubated 60 min with target, then MMC-GO 20 min; MST at 25 C; conditions: protein: native; tags: RED-NHS dye label in MST; label: SYBR Gold staining in MMC-GO assay; circular ssDNA
[4] = target: T1, Ara h1 (peanut allergen); experiment: MMC-GO-based fluorescence binding assay; 1x binding buffer (composition not in material); aptamer heated 95 C 5 min, ice 15 min, incubated 60 min with target, then MMC-GO 20 min; MST at 25 C; conditions: protein: native; tags: RED-NHS dye label in MST; label: SYBR Gold staining in MMC-GO assay; circular ssDNA

| Molecule | binding [1] | other results |
| --- | --- | --- |
| Cc1cc2nc3c(=O)[nH]c(=O)nc-3n(C[C@H](O)[C@H](O)[C@H](O)CO)c2cc1C | no |  |
| N[C@@H](Cc1c[nH]c2ccccc12)C(=O)O | no |  |
| N[C@@H](Cc1ccccc1)C(=O)O | no |  |
| Nc1ncnc2c1ncn2[C@@H]1O[C@H](COP(=O)(O)OP(=O)(O)OP(=O)(O)O)[C@@H](O)[C@H]1O | no |  |
| O=C1O[C@H]([C@@H](O)CO)C(O)=C1O | no |  |
| OC[C@H]1OC(O)[C@H](O)[C@@H](O)[C@@H]1O (stereo partly shown) | no |  |
| CArah1-3 (structured_DNA, circular (5' and 3' ends ligated)) DNA: ATCCGATCGATTCTACGGTTTTTCGCTAACGTTCACTGCACTGTATCTGGGCTAAGAGAT |  | binding result [2]: binds |
| CArah1-4 (structured_DNA, circular (5' and 3' ends ligated)) DNA: ATCCGATCGATCAACAAACTTCGTGGCTCACCCAGACATTCACTCATGCGGCTAAGAGAT |  | binding result [2]: binds |
| CArah1-1 (structured_DNA, circular (5' and 3' ends ligated)) DNA: ATCCGATCGAGAGGATCCGGAAACATGCGAATTAATGAGGCCCCAAGATAGCTAAGAGAT |  | Kd [3]: 201 nM; Kd [4]: 981 nM |
